In ChEMBL document CHEMBL6177981, “Bardoxolone Derivatives as Novel Pseudo-Natural Necroptosis Inhibitors by Destabilizing HSP90 Client Proteins” (J Med Chem, 2025):
Activity calls are given as the source filed them. The rule behind the calls is not given here.

Tests used:
[1] = system: L929; experiment: Anti-necroptotic activity in TZ-induced mouse L929 cells assessed as increase in cell viability preincubated with compound followed by Z-VAD-FMK and mTNFalpha stimulation and measured after 4 hrs by CellTiter-Lumi luminescent cell viability assay; assay type: functional, cell-based; conditions: dose 0.625-10 µM
[2] = system: HT-29; experiment: Effect on cell morphology in TSZ-induced necroptotic human HT-29 cells at 10 uM measured after 12 hrs by Live-cell super-resolution panoramic microscopic analysis; assay type: functional, cell-based
[3] = system: L929; experiment: Anti-necroptotic activity in TZ-induced mouse L929 cells assessed as rounded shape cell morphology at 10 uM measured after 12 hrs by Live-cell super-resolution panoramic microscopic analysis; assay type: functional, cell-based
[4] = system: Mus musculus; experiment: (§1) Anti-necroptotic activity in TNFalpha/Z-VAD-FMK induced SIRS male C57BL/6J mouse model assessed as protection from death at 2.5 to 10 mg/kg, po pre-administered with compound via gavage for 2 hrs followed by […] of Z-VAD-FMK stimulation for 15 mins with subsequent TNF-alpha stimulation for 1 hrs and re-current […] of Z-VAD-FMK stimulation and measured after 8 hrs post SIRS induction; assay type: functional, organism-based; conditions: dose 2.5-10 mg/kg, time 10.0 hrs
[5] = system: Mus musculus; experiment: as §1, with “survival rate” for “protection from death”, “at” for “at 2.5 to”, “induction relative to control” for “induction”; assay type: functional; conditions: time 10 hrs
[6] = system: Mus musculus; experiment: as §1, with “reduction in IL6 in serum” for “protection from death at 2.5 to 10 mg/kg, po”, “pre-administered orally” for “pre-administered”, “induction by ELISA” for “induction”; assay type: functional, organism-based; conditions: dose 2.5-10 mg/kg, route po, time 10.0 hrs
[7] = system: Mus musculus; experiment: as §1, with “reduction in IL-1beta in kidney” for “protection from death”, “5” for “2.5”, “induction by ELISA” for “induction”; assay type: functional, organism-based; conditions: dose 5-10 mg/kg, time 10.0 hrs
[8] = system: Mus musculus; experiment: as §1, with “reduction in IL6 in heart” for “protection from death”, “5” for “2.5”, “induction by ELISA” for “induction”; assay type: functional, organism-based; conditions: dose 5-10 mg/kg, time 10.0 hrs
[9] = system: Mus musculus; experiment: as §1, with “reduction in IL6 in liver” for “protection from death”, “5” for “2.5”, “induction by ELISA” for “induction”; assay type: functional, organism-based; conditions: dose 5-10 mg/kg, time 10.0 hrs
[10] = system: Mus musculus; experiment: as §1, with “reduction in IL6 in lung” for “protection from death”, “5” for “2.5”, “induction by ELISA” for “induction”; assay type: functional, organism-based; conditions: dose 5-10 mg/kg, time 10.0 hrs
[11] = Cmax in Sprague-Dawley rat at 2 mg/kg, iv measured after 24 hrs by LC-MS/MS analysis; assay type: ADME, organism-based; conditions: in vivo
[12] = AUC (0 to 24 hrs) in Sprague-Dawley rat at 2 mg/kg, iv measured after 24 hrs by LC-MS/MS analysis; assay type: ADME, organism-based; conditions: in vivo
[13] = Bioavailability in Sprague-Dawley rat at 10 mg/kg, IG measured after 24 hrs by LC-MS/MS analysis; assay type: ADME, organism-based; conditions: in vivo, po
[14] = Acute toxicity in male C57BL/6J mouse assessed as hemorrhage in spleen at 2 g/Kg, IG measured after 72 hrs by H and E staining based analysis; assay type: tissue-based; conditions: in vivo, po, 2000 mg/kg
[15] = Acute toxicity in male C57BL/6J mouse assessed as structural changes in spleen at 2 g/Kg, IG measured after 72 hrs by H and E staining based analysis; assay type: tissue-based; conditions: in vivo, po, 2000 mg/kg
[16] = molecular target: Receptor-interacting serine/threonine-protein kinase 3 (Homo sapiens) (UniProt Q9Y572); experiment: Inhibition of RIPK3 phosphorylation in TSZ-induced human HT-29 cells at 10 uM preincubated with compound followed by Z-VAD-FMK, SM164 and TNFalpha stimulation and measured within 6 hrs by Western blot analysis relative to control; assay type: cell-based
[17] = system: HT-29; experiment: Upregulation of HSP70 protein level in TSZ-induced human HT-29 cells at 10 uM preincubated with compound followed by Z-VAD-FMK, SM164 and TNFalpha stimulation and measured after 6 hrs by Western blot analysis; assay type: functional, cell-based
[18] = system: HT-29; experiment: Downregulation of RIPK1 protein level in human HT-29 cells incubated for 9 hrs by Western blot analysis; assay type: functional, cell-based; conditions: dose 0.75-6 µM
[19] = system: HT-29; experiment: Downregulation of MLKL protein level in human HT-29 cells incubated for 9 hrs by Western blot analysis; assay type: functional, cell-based; conditions: dose 0.75-6 µM
[20] = system: HT-29; experiment: Downregulation of RIPK3 protein level in human HT-29 cells at 3 to 6 uM incubated for 9 hrs by Western blot analysis; assay type: functional, cell-based; conditions: dose 3-6 µM
[21] = system: HT-29; experiment: Upregulation of HSP70 expression in human HT-29 cells at 1.5 uM incubated for 9 hrs by Western blot analysis; assay type: functional, cell-based
[22] = system: HT-29; experiment: Downregulation of MLKL protein level in human HT-29 cells at 6 uM preincubated with MLN4924 for 2 hrs followed by compound addition and measured after 9 hrs by Western blot analysis; assay type: functional, cell-based
[23] = system: HT-29; experiment: Downregulation of MLKL protein level in human HT-29 cells at 6 uM preincubated with Z-VAD-FMK for 2 hrs followed by compound addition and measured after 9 hrs by Western blot analysis; assay type: functional, cell-based
[24] = system: HeLa; experiment: Inhibition of MLKL protein expression in RIPK3-deficient human HeLa cells at 6 uM preincubated with MG132 for 2 hrs followed by compound addition and measured after 9 hrs by Western blot analysis; assay type: functional, cell-based
[25] = system: HT-29; experiment: Effect on MLKL protein level in human HT-29 cell precipitate at 6 uM measured after 9 hrs by Western blot analysis; assay type: functional, cell-based

Receptor-interacting serine/threonine-protein kinase 3 (Homo sapiens), sequence (Q9Y572 whole entry, looked up): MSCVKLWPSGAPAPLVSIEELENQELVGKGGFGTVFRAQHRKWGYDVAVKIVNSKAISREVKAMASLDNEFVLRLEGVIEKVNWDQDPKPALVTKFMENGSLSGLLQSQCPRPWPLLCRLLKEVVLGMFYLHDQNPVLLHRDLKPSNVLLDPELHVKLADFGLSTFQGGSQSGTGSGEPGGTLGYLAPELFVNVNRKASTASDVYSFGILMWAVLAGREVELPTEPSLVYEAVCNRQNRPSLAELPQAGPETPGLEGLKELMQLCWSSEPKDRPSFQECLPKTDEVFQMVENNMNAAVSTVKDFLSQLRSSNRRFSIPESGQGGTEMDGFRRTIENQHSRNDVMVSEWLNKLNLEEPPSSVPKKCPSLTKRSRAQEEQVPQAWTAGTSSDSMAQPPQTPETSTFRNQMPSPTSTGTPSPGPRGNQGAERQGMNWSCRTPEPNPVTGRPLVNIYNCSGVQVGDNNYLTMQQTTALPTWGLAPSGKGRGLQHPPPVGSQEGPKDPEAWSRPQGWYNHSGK

Cn1ccc(-c2ccc(NC(=O)[C@]34CCC(C)(C)C[C@H]3[C@H]3C(=O)C=C5[C@@]6(C)C=C(C#N)C(=O)C(C)(C)[C@@H]6CC[C@@]5(C)[C@]3(C)CC4)cc2)n1
Activity [1]: Dose-dependent-effect
Activity [2]: Active
Activity [3]: Active
Activity [4]: Active
survival at 10 mg/kg [5]: 100%
Activity [6]: Dose-dependent-effect
Activity [7]: Active
Activity [8]: Active
Activity [9]: Active
Activity [10]: Active
Cmax [11]: 1040 ng/mL
AUC(0-t) at 24 h [12]: 4640 ng·h/mL
bioavailability [13]: 4.66%
Activity [14]: Non-toxic
Activity [15]: Non-toxic
inhibition [16]: 100%
Activity [17]: inactive
Activity [18]: Dose-dependent-effect
Activity [19]: Dose-dependent-effect
Activity [20]: Active; Significant Effect Observed
Activity [21]: Active
Activity [22]: Active
Activity [23]: Active
inhibition [24]: Active
Activity [25]: inactive
